The test system of the assay is C57BL/6 mice. The experiment in a line: Mouse model of LPV (zymosan-induced vulvar allodynia), topical Maresin 1. Format: in vivo. To be noted: topical 1 μg/mouse/day, daily for 4 weeks. An excerpt: FIG. 9 is a diagram showing that PGE2 in vaginal lavage is associated with pain threshold. After induction of allodynia for up to 6 weeks (indicated by reduced pain threshold, red line), Maresin 1 was applied to C57BL/6 mouse vulvas to reduce pain and increase pain threshold. PGE2 content in vaginal lavage samples (blue line) rapidly increases during the induction phase, indicating pain-associated inflammation waning with treatment. SEM shown, n=8.
In the mouse model, zymosan (a proinflammatory yeast cell wall preparation) was used to induce sustained vulvar allodynia, measured by pain threshold testing. […]
Using this approach, inventors confirmed that one could induce vulvar allodynia, measure pain responses via mechanical threshold determination, and assess treatment responses. However, inventors implemented several modifications to improve the robustness of the model including the following: 1) use a genetically tractable inbred strain, 2) validation of the use of an electronic von Frey (EvF) system, 3) assessment of the impact of behavioral conditioning on pain response, 4) weekly collection of vulvovaginal lavages for proinflammatory mediator quantification, and 5) testing the ability of a selected SPM (e.g., Maresin 1) to modulate pain and inflammation in our new model. […]

Structures are written as SMILES.

These results are taken from US20220040136A1, “TREATMENT OF VULVOVAGINAL DISORDERS” (University of Rochester, priority 2018, published 2022).

For `CC/C=C\C/C=C\C[C@H](O)\C=C/C=C/C=C/[C@H](O)C/C=C\CCC(=O)O` [Maresin 1, 7R,14S-docosa-4Z,8E,10E,12Z,16Z,19Z-hexaenoic acid], the “PGE2 levels in vaginal lavage” value was “suppressed and maintained at levels below baseline”. Further, the “pain threshold (electronic von Frey)” value (after allodynia induction) was “complete restoration to the pre-induction thresholds”.
